Results published in article PMC11864979, “First-in-class ultralong-target-residence-time p38α inhibitors as a mitosis-targeted therapy for colorectal cancer” (Nature Cancer, 2025).
Where two headings read alike, the source gives them in different places.

How the values were obtained:
Assay in all cases: selectivity profiling in a panel of 340 wild-type kinases (Reaction Biology Europe)
Assay type in all cases: binding
340 wild-type kinases [1] = molecular target: T1, 340 wild-type kinases (Homo sapiens, UniProt Q9H2G2)
T1 construct: purchased Reaction Biology Europe
T1 sequence (Q9H2G2 whole entry): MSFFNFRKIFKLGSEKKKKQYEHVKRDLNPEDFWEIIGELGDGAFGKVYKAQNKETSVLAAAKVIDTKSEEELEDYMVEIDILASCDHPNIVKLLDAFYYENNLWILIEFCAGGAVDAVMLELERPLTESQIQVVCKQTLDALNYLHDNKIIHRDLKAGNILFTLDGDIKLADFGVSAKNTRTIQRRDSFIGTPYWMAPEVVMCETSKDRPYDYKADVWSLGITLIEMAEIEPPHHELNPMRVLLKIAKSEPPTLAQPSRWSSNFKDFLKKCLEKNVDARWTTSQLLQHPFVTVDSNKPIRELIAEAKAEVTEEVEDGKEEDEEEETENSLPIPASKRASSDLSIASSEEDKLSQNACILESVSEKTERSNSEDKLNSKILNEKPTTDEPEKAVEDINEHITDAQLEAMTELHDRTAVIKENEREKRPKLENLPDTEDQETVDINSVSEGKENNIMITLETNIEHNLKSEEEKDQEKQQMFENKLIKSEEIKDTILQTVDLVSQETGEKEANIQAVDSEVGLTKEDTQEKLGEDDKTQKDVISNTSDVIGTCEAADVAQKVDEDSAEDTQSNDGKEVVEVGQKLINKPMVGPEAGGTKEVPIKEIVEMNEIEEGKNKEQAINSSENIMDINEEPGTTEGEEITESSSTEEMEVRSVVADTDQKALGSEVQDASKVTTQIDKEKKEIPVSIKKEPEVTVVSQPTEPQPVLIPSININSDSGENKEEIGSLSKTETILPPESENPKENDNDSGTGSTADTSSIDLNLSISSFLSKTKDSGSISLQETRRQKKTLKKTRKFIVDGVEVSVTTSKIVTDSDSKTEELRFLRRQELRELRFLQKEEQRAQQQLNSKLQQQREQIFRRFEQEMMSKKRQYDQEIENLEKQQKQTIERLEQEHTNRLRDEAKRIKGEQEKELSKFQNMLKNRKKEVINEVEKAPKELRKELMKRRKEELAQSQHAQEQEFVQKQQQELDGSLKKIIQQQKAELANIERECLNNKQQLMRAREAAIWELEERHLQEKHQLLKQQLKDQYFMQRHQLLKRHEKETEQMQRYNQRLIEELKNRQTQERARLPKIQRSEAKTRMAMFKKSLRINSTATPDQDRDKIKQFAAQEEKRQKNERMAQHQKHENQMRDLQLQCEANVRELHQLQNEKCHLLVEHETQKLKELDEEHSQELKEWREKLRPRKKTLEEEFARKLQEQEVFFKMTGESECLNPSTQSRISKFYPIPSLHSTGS

340 wild-type kinases [2] = molecular target: T2, 340 wild-type kinases (Homo sapiens, UniProt P45985)
T2 construct: purchased Reaction Biology Europe
T2 sequence (P45985 1-399): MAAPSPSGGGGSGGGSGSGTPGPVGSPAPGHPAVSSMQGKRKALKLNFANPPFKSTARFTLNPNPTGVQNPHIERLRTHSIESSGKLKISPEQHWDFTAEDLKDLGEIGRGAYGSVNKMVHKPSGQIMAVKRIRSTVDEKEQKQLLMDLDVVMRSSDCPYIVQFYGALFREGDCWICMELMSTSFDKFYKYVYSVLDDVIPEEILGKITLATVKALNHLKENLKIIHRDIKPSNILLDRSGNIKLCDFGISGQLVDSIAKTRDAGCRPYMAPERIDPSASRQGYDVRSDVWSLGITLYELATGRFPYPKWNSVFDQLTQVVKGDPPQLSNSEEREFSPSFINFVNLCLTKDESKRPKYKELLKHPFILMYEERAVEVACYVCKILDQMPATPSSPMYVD

340 wild-type kinases [3] = molecular target: T3, 340 wild-type kinases (Homo sapiens, UniProt P42681)
T3 construct: purchased Reaction Biology Europe
T3 sequence (P42681 1-527): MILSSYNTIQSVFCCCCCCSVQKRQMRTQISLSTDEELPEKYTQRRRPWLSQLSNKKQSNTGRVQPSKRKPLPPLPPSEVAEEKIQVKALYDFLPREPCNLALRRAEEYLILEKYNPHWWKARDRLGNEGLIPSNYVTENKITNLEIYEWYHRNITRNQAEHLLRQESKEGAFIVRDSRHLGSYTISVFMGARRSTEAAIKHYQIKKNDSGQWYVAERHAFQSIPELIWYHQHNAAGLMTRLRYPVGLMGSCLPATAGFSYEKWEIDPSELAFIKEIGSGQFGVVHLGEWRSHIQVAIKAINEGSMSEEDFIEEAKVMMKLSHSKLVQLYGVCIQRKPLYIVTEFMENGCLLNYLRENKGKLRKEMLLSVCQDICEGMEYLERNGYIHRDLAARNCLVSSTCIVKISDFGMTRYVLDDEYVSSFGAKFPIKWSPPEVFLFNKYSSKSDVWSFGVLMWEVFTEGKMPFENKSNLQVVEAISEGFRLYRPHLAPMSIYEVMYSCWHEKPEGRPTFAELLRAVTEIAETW

340 wild-type kinases [4] = molecular target: T4, 340 wild-type kinases (Homo sapiens, UniProt P29320)
T4 construct: purchased Reaction Biology Europe
T4 sequence (P29320 21-983): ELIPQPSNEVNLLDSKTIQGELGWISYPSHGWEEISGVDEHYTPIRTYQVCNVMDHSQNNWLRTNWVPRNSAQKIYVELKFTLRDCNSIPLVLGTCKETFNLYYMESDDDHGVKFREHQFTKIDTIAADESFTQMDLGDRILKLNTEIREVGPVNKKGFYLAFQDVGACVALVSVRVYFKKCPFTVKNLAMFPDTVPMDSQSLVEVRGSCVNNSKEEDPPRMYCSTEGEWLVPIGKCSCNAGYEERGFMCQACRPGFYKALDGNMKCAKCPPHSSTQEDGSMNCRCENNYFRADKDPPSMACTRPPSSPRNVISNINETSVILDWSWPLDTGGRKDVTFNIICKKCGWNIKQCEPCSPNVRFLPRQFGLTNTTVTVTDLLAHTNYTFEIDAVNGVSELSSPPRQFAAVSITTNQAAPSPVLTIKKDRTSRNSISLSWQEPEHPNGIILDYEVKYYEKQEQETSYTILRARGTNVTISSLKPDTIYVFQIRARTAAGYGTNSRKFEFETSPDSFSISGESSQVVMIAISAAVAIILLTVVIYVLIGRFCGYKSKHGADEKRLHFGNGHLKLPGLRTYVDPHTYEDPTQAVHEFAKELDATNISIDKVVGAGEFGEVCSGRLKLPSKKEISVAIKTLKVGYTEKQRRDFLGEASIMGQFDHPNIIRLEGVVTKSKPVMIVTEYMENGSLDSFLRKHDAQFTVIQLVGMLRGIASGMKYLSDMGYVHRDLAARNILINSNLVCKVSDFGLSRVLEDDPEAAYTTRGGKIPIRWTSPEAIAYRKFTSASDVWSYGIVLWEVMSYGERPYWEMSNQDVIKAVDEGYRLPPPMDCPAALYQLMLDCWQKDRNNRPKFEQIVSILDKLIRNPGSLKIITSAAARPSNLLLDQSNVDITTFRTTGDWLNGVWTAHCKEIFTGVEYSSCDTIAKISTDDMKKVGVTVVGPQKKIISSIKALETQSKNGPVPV

Compound: CNC(=O)c1ccc2c(c1)C(=O)c1ccc(Nc3ccc(F)c(NC(=O)C4CC4)c3)cc1CC2 [Compound 2015]
- remaining activity at 0.2 µM (340 wild-type kinases [1]; 0.2 µM 2015, read-out: SLK residual activity): 75%
- remaining activity at 1 µM (340 wild-type kinases [1]; 1 µM 2015, read-out: SLK residual activity): 75.3%
- remaining activity at 0.2 µM (340 wild-type kinases [1]; SLK, 0.2 µM, read-out: residual activity): 75%
- remaining activity at 1 µM (340 wild-type kinases [1]; SLK, 1 µM, read-out: residual activity): 75.3%
- remaining activity at 0.2 µM (340 wild-type kinases [2]; 0.2 µM 2015, read-out: MKK4 residual activity): 81.9%
- remaining activity at 1 µM (340 wild-type kinases [2]; 1 µM 2015, read-out: MKK4 residual activity): 91.3%
- remaining activity at 0.2 µM (340 wild-type kinases [2]; MKK4, 0.2 µM, read-out: residual activity): 81.9%
- remaining activity at 1 µM (340 wild-type kinases [2]; MKK4, 1 µM, read-out: residual activity): 91.3%
- remaining activity at 0.2 µM (340 wild-type kinases [3]; 0.2 µM 2015, read-out: TXK residual activity): 94.2%
- remaining activity at 1 µM (340 wild-type kinases [3]; 1 µM 2015, read-out: TXK residual activity): 90%
- remaining activity at 0.2 µM (340 wild-type kinases [3]; TXK, 0.2 µM, read-out: residual activity): 94.2%
- remaining activity at 1 µM (340 wild-type kinases [3]; TXK, 1 µM, read-out: residual activity): 90%
- remaining activity at 0.2 µM (340 wild-type kinases [4]; 0.2 µM 2015, read-out: EPHA3 residual activity): 100%
- remaining activity at 1 µM (340 wild-type kinases [4]; 1 µM 2015, read-out: EPHA3 residual activity): 96.4%
- remaining activity at 0.2 µM (340 wild-type kinases [4]; EPHA3, 0.2 µM, read-out: residual activity): 100%
- remaining activity at 1 µM (340 wild-type kinases [4]; EPHA3, 1 µM, read-out: residual activity): 96.3%
